10 molecules from patent US20250186437A1, “CARBOLINE COMPOUNDS AND USE THEREOF” (PTC Therapeutics, Inc., priority 2021, published 2025) can be followed below.

pIC50: −log10 of the molar value. Structures can show the parent of a compound that is named as a salt.

Assay [1] deals with MOLM-13 cells. The experiment in a line: MOLM-13 Cell Proliferation Assay (indicator of DHODH inhibition). The assay is classed as cell-based. To be noted: Homo sapiens, 72 Hours of culture, CellTiter-Glo, no uridine. The gist of the method: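 Proliferation readout via CellTiter-Glo luminescence after 72 h compound treatment (37 °C, 5% CO2, 0.5% DMSO) of MOLM-13 cells seeded at 10^4 per well in RPMI 1640/10% FBS, used as a DHODH-inhibition indicator since these cells rely on de novo pyrimidine synthesis.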
Background: In ATP-based viability assays light output follows the ATP content of the culture.

Assay [2] deals with MOLM-13 cells. In words: MOLM-13 Uridine Rescue Assay. Format: cell-based. Particulars: Homo sapiens; MOLM-13 cell proliferation with 100 μM Uridine added, 72 Hours of culture. How it is done:
The following assay was conducted to measure proliferation of MOLM-13 cells in the presence of each compound studied. This assay was included as an indicator of DHODH inhibition, as growth of MOLM-13 cells is known to depend on synthesis of pyrimidines using the de novo pathway, which can be blocked by inhibition of DHODH. • 1. MOLM-13 cells were cultured in RPMI 1640 medium+10% Fetal Bovine Serum (FBS). Only low passage cells (<20) were used for the compound tests • 2. On day 1, Log-phase growing Molm-13 Cells were counted and diluted to 10^5 cells/mL in RPMI 1640 medium+10% FBS • 3. 100 μL of diluted MOLM-13 cells in 96 well white plates were seeded, for a final density of 10^4 cells/well. • 4. 0.5 μL of pre-diluted 200× compounds or DMSO control was added to each well. The final DMSO concentration was 0.5%. • 5. After 72 Hours of culture at 37° C., 5% CO2, the plates were taken out and cooled to RT, then 50 μL CellTiter-Glo® (Promega) was added, and the composition was mixed at RT for 10 minutes. • 6. The plates were then read by ViewLux (Speed-fast, Gain-High, Bining-1X, 5 seconds).
Several compounds were also tested in a Uridine rescue assay. In the Uridine rescue assay, using the procedure in Example 1 above, an additional plate of MOLM-13 cell cultures was prepared, to which 100 μM of Uridine was added in step 3 of the process.

The pIC50 is the IC50 on a negative log10 scale, so that one unit is a factor of ten. Read a high pIC50 as a low IC50. `FC(F)(F)c1cc(C(F)(F)F)nc(N2CCc3c([nH]c4ccc(Cl)cc34)C2c2cnc(N3CCOCC3)nc2)n1` (centres unmarked) [Compound 358, 2-[4,6-bis(trifluoromethyl)pyrimidin-2-yl]-6-chloro-1-[2-(morpholin-4-yl)pyrimidin-5-yl]-2,3,4,9-tetrahydro-1H-pyrido[3,4-b]indole formate (1:1)]: the figures for the pIC50 in assay [1] and in assay [2] were 9.10 and 4.91, respectively.

For `N#Cc1ccnc(N2CCc3c([nH]c4ccc(Cl)cc34)C2c2cnc(N3CCOCC3)nc2)n1` (centres unmarked) [Compound 359, 2-{6-chloro-1-[2-(morpholin-4-yl)pyrimidin-5-yl]-1,3,4,9-tetrahydro-2H-pyrido[3,4-b]indol-2-yl}pyrimidine-4-carbonitrile], the negative logarithm of the IC50 (pIC50) was 8.10 in assay [1] and 5.25 in assay [2].

On to `Cc1ccc(C2c3[nH]c4ccc(Cl)cc4c3CCN2c2nc(C)cc(C(F)(F)F)n2)cc1` (centres unmarked) [Compound 361, 6-chloro-1-(4-methylphenyl)-2-[4-methyl-6-(trifluoromethyl)pyrimidin-2-yl]-2,3,4,9-tetrahydro-1H-pyrido[3,4-b]indole], for which the negative logarithm of the IC50 (pIC50) in assay [1] is 8.74; in assay [2] it was 4.66.

Consider `Cc1cc(C#N)nc(N2CCc3c([nH]c4ccc(Cl)cc34)C2c2cnc(N3CCOCC3)nc2)n1` (centres unmarked) [Compound 362, 2-{6-chloro-1-[2-(morpholin-4-yl)pyrimidin-5-yl]-1,3,4,9-tetrahydro-2H-pyrido[3,4-b]indol-2-yl}-6-methylpyrimidine-4-carbonitrile], for which the figures for the pIC50 in assay [1] and in assay [2] were 8.37 and 5.17, respectively.

Take `Cc1ccc(C2c3[nH]c4ccc(Cl)cc4c3CCN2c2nccc(C#N)n2)c(F)c1F` (centres unmarked) [Compound 363, 2-[6-chloro-1-(2,3-difluoro-4-methylphenyl)-1,3,4,9-tetrahydro-2H-pyrido[3,4-b]indol-2-yl]pyrimidine-4-carbonitrile]: the negative-log IC50 (pIC50) is 8.49 in assay [1] and 4.99 in assay [2].

With `CN1CCN(c2ncc(C3c4[nH]c5ccc(Cl)cc5c4CCN3c3nccc(C(F)(F)F)n3)cn2)CC1` (centres unmarked) [Compound 369, 6-chloro-1-[2-(4-methylpiperazin-1-yl)pyrimidin-5-yl]-2-[4-(trifluoromethyl)pyrimidin-2-yl]-2,3,4,9-tetrahydro-1H-pyrido[3,4-b]indole], the values for the negative logarithm of the IC50 (pIC50) in assay [1] and in assay [2] were 8.35 and 5.30, respectively.

Regarding `Cc1cc(C(F)(F)F)nc(N2CCc3c([nH]c4ccc(Cl)cc34)C2c2ccc(N3CCOCC3)nc2)n1` (centres unmarked) [Compound 372, 6-chloro-2-[4-methyl-6-(trifluoromethyl)pyrimidin-2-yl]-1-[6-(morpholin-4-yl)pyridin-3-yl]-2,3,4,9-tetrahydro-1H-pyrido[3,4-b]indole], the negative-log IC50 (pIC50) in assay [1] was 8.80; in assay [2], 4.79.

As to `Cc1cc(C(F)(F)F)nc(N2CCc3c([nH]c4ccc(Cl)cc34)C2c2cnc(N3CCOCC3)nc2)n1` (centres unmarked) [Compound 374, 6-chloro-2-[4-methyl-6-(trifluoromethyl)pyrimidin-2-yl]-1-[2-(morpholin-4-yl)pyrimidin-5-yl]-2,3,4,9-tetrahydro-1H-pyrido[3,4-b]indole], the pIC50 in assay [1] was 8.80; in assay [2], 5.05.

On to `CN1CCN(c2ncc(C3c4[nH]c5ccc(Cl)cc5c4CCN3c3nc(C(F)(F)F)cc(C(F)(F)F)n3)cn2)CC1` (centres unmarked) [Compound 381, 2-[4,6-bis(trifluoromethyl)pyrimidin-2-yl]-6-chloro-1-[2-(4-methylpiperazin-1-yl)pyrimidin-5-yl]-2,3,4,9-tetrahydro-1H-pyrido[3,4-b]indole], for which the negative-log IC50 (pIC50) in assay [1] is 9.15; in assay [2] it was 5.37.

`Cc1ccc([C@H]2c3[nH]c4ccc(Cl)cc4c3CCN2c2nc(C(F)(F)F)nc(C(F)(F)F)n2)c(F)c1F` [Compound 387, (1S)-2-[4,6-bis(trifluoromethyl)-1,3,5-triazin-2-yl]-6-chloro-1-(2,3-difluoro-4-methylphenyl)-2,3,4,9-tetrahydro-1H-pyrido[3,4-b]indole]: the results for the pIC50 in assay [1] and in assay [2] were 9.70 and 5.12, respectively.
